{"source": "paper PMC9249791", "about": "“Molecular dissection of the glutamine synthetase-GlnR nitrogen regulatory circuitry in Gram-positive bacteria” (Nature Communications, 2022)", "format_in_all_cases": "binding", "key": {"Lm GS": {"target": "T1, Lm GS (Listeria monocytogenes, UniProt A0A5D5GA79)", "T1 construct": "gene glnA; full-length, synthetic gene in pET15b, N-terminal His-tag, E. coli C41(DE3); apo dodecamer", "T1 sequence (A0A5D5GA79 1-444)": "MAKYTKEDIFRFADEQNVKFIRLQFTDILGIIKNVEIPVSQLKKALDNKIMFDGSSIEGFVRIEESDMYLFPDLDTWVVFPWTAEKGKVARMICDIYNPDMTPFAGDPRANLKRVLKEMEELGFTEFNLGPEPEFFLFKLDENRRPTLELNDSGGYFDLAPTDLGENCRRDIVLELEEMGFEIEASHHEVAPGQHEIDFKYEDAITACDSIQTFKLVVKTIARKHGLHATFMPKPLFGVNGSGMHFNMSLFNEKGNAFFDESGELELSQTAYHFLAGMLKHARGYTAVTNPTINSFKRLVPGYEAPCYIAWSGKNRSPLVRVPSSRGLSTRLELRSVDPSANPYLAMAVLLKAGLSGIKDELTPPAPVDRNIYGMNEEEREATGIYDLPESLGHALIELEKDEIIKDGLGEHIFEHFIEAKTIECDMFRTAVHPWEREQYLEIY", "assay": "cryo-EM structure […] Å", "conditions": "20 mM glutamine, 5 mM MgCl2, pH 7.5, with GlnR C-tail peptide; overlaps glutamate site"}, "Bs GS": {"target": "T2, Bs GS (Bacillus subtilis, UniProt P12425)", "T2 construct": "gene glnA; full-length, synthetic gene in pET15b, N-terminal His-tag, E. coli C41(DE3); apo dodecamer", "T2 sequence (P12425 1-444)": "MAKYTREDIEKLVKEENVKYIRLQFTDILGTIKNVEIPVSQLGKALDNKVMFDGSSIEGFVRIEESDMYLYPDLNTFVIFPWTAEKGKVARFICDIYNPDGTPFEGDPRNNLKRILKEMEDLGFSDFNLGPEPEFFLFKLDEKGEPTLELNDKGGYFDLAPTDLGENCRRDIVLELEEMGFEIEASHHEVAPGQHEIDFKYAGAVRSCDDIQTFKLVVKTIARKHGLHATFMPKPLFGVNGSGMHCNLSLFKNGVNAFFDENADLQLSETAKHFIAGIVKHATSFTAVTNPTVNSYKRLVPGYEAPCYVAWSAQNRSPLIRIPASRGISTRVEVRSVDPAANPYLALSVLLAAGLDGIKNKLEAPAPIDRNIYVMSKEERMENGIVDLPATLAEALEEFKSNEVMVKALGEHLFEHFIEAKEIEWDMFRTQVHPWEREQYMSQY", "assay": "cryo-EM structure […] Å", "conditions": "20 mM glutamine, 5 mM MgCl2, pH 7.5, with GlnR C-tail peptide; overlaps glutamate site"}, "Sa GS": {"target": "T3, Sa GS (Staphylococcus aureus, UniProt P0A040)", "T3 construct": "gene glnA; full-length, synthetic gene in pET15b, N-terminal His-tag, E. coli C41(DE3); tag removed only for crystallography; dodecamer (double hexamer ring)", "T3 sequence (P0A040 1-446)": "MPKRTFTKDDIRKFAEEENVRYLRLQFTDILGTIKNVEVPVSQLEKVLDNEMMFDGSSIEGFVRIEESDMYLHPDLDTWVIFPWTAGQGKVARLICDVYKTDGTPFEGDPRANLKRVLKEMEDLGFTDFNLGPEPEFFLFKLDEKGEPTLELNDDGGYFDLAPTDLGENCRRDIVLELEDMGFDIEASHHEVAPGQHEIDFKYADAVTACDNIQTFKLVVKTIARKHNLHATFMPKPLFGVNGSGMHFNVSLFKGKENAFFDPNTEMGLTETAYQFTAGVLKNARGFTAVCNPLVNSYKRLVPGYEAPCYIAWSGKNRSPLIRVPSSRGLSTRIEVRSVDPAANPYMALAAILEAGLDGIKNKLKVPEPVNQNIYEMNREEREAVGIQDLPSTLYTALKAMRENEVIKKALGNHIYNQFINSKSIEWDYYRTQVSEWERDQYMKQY", "assay": "isothermal titration calorimetry"}, "Pp GS": {"target": "T4, Pp GS (Paenibacillus polymyxa, UniProt A0A0F0G8G2)", "T4 construct": "gene glnA2; full-length, synthetic gene in pET15b, N-terminal His-tag (removed by thrombin for crystallography), E. coli C41(DE3)", "T4 sequence (A0A0F0G8G2 1-442)": "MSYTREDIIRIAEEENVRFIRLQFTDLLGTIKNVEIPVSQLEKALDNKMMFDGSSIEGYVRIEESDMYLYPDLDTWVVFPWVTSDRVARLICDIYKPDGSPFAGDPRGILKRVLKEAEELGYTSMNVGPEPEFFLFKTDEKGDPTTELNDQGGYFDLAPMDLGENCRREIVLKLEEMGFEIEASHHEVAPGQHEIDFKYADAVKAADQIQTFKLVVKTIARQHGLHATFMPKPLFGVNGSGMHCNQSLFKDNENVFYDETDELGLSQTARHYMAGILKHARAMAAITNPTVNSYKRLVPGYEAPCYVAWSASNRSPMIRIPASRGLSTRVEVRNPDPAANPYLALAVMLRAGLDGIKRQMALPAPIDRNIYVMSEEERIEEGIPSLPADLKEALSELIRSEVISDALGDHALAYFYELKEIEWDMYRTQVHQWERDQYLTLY", "assay": "cryo-EM structure […]-2.[…] Å", "conditions": "20 mM glutamine, 5 mM MgCl2, pH 7.5, with GlnR C-tail peptide; overlaps glutamate site"}}}
{"compound": "NC(=O)CC[C@H](N)C(=O)O", "note": "[glutamine]", "values": [{"measurement": "cryo-EM structure 2.61 Å", "setting": "Lm GS", "value": "Glutamine binds identically in each structure to form FBI-GS"}, {"measurement": "cryo-EM structure 1.96 Å", "setting": "Bs GS", "value": "Glutamine binds identically in each structure to form FBI-GS"}, {"measurement": "Kd", "setting": "Sa GS", "value": 500, "unit": "µM"}, {"measurement": "cryo-EM structure 2.07-2.28 Å", "setting": "Pp GS", "value": "Glutamine binds identically in each structure to form FBI-GS"}]}
